Source: patent US20160046618A1, “Cyclopropyl Fused Thiazin-2-Amine Compounds as Beta-Secretase Inhibitors and Methods of Use” (AMGEN INC., priority 2014, published 2016)

Tests used:
[1] = target: human recombinant BACE1 (Homo sapiens (Human), UniProt P56817); experiment: In vitro enzymatic BACE1 FRET assay; format: biochemical; conditions: read-out: IC50 IP (μM) BACE1 enzyme
Procedure, shortened: (§1)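 Tris addition raises the pH to neutral to stop the reaction before fluorescence is measured at 590 nm emission with 488 nm excitation.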

[2] = target: human recombinant BACE2 (Homo sapiens (Human), UniProt Q9Y5Z0); experiment: In vitro enzymatic BACE2 FRET assay; format: biochemical; conditions: read-out: IC50 IP (μM) BACE2 enzyme
human recombinant BACE2, sequence (Q9Y5Z0 63-518): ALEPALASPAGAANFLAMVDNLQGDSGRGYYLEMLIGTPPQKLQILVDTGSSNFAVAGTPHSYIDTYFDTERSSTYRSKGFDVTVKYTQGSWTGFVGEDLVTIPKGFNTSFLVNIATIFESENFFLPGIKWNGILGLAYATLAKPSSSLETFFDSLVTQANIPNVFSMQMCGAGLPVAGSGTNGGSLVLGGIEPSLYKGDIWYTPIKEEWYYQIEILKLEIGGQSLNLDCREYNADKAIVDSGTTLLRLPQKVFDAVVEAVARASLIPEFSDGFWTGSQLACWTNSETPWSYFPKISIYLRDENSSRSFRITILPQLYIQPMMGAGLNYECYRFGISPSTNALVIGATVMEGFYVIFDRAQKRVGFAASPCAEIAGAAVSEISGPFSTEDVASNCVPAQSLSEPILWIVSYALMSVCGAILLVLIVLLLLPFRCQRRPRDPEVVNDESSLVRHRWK
Procedure, shortened: as §1

[3] = target: Recombinant Cat D (Homo sapiens (Human), UniProt P07339); experiment: In vitro enzymatic Cathepsin D (Cat D) FRET assay; format: biochemical; conditions: read-out: IC50 IP (μM) CatD
Recombinant Cat D, sequence (P07339 65-412): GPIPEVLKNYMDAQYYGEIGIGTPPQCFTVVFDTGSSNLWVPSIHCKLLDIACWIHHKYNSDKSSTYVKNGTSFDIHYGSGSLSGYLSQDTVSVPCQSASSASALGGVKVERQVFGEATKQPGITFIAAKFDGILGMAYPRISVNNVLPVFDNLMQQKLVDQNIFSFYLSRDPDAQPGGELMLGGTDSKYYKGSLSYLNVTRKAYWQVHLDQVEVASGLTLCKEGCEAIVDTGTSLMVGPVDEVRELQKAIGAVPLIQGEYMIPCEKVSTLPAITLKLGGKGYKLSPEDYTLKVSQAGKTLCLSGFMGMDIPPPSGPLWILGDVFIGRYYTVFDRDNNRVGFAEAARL
Procedure, shortened: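 Human Cat D expressed in CHO cells was incubated for one hour in 0.05 M citrate pH 3.5, 5 mM CHAPS, 10% DMSO final, with 20 nM quenched FRET peptide substrate. Reactions were stopped with Tris buffer raising pH to neutrality. Cleavage was read as fluorescence at excitation 500 nm, emission 580 nm.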

[4] = test system: Aβ40 in conditioned medium of cells stably expressing Amyloid Precursor Protein (APP); experiment: In vitro BACE-1 cell-based assay (Aβ40 sandwich ELISA); conditions: read-out: IC50 IP (μM) BACE1 cell
Procedure, shortened: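 Read-out: time-resolved fluorescence (Streptavidin-Europium) of Aβ40 captured by pAb40 and detected with biotinylated 6E10 from supernatants of APP-stable cells. Cells were exposed to compound for 24 h, 10-point dose response, top dose 100 μM or 10 μM, 0.1% DMSO. IC50 fitted to percent of control.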

human recombinant BACE1, sequence (P56817 46-501): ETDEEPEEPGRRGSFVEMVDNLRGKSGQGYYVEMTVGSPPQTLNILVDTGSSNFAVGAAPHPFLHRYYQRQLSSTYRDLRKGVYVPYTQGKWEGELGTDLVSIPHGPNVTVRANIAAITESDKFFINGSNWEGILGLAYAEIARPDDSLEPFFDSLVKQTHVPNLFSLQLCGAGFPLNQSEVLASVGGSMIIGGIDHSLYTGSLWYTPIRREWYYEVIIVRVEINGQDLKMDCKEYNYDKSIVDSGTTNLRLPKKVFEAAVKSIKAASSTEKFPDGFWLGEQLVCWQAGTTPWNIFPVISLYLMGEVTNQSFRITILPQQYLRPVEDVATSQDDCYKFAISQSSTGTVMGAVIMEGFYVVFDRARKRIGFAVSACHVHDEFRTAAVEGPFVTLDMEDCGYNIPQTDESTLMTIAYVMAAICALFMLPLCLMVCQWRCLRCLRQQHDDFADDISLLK

SMILES	IC50 [1] [µM]	IC50 [2] [µM]	IC50 [3] [µM]	IC50 [4] [µM]
CNC(=O)[C@]12C[C@H]1[C@@](C)(c1cc(NC(=O)c3ccc(OCC(F)(F)F)cn3)cc(F)c1F)N=C(N)S2 [Example 700, (1S,5S,6S)-3-amino-5-(2,3-difluoro-5-(((5-(2,2,2-trifluoroethoxy)-2-pyridinyl)carbonyl)amino)phenyl)-N,5-dimethyl-2-thia-4-azabicyclo[4.1.0]hept-3-ene-1-carboxamide]	0.00115	0.224	569	0.00826
CNC(=O)[C@]12C[C@H]1[C@@](C)(c1cc(NC(=O)c3cnc(OCC(F)(F)F)cn3)cc(F)c1F)N=C(N)S2 [Example 701, (1S,5S,6S)-3-amino-5-(2,3-difluoro-5-(((5-(2,2,2-trifluoroethoxy)-2-pyrazinyl)carbonyl)amino)phenyl)-N,5-dimethyl-2-thia-4-azabicyclo[4.1.0]hept-3-ene-1-carboxamide]	0.000943	0.0782	587	0.00309
CNC(=O)[C@]12C[C@H]1[C@@](C)(c1cc(NC(=O)c3ncc(OCC(F)(F)F)cc3C)cc(F)c1F)N=C(N)S2 [Example 702, (1S,5S,6S)-3-amino-5-(2,3-difluoro-5-(((3-methyl-5-(2,2,2-trifluoroethoxy)-2-pyridinyl)carbonyl)amino)phenyl)-N,5-dimethyl-2-thia-4-azabicyclo[4.1.0]hept-3-ene-1-carboxamide]	0.000986	0.269	362	0.0344
C[C@]1(c2cc(Nc3ncnc4cc(C#N)cnc34)ccc2F)N=C(N)S[C@]2(CO)[C@H]1C2(F)F [Example 703, 4-((3-((1S,5S,6R)-3-amino-7,7-difluoro-1-(hydroxymethyl)-5-methyl-2-thia-4-azabicyclo[4.1.0]hept-3-en-5-yl)-4-fluorophenyl)amino)pyrido[3,2-d]pyrimidine-7-carbonitrile]	0.00594	0.011	340	0.0153
C[C@]1(c2cc(NC(=O)c3ccc(Cl)cn3)ccc2F)N=C(N)S[C@]2(CO)[C@H]1C2(F)F [Example 704, N-(3-((1S,5S,6R)-3-amino-7,7-difluoro-1-(hydroxymethyl)-5-methyl-2-thia-4-azabicyclo[4.1.0]hept-3-en-5-yl)-4-fluorophenyl)-5-chloro-2-pyridinecarboxamide]	0.002	< 0.00203	141	0.00557
C[C@]1(c2cc(Nc3nccc4nc(OCc5cocn5)cnc34)ccc2F)N=C(N)S[C@]2(CO)[C@H]1C2(F)F [Example 706, ((1S,5S,6R)-3-amino-7,7-difluoro-5-(2-fluoro-5-((2-(1,3-oxazol-4-ylmethoxy)pyrido[3,4-b]pyrazin-5-yl)amino)phenyl)-5-methyl-2-thia-4-azabicyclo[4.1.0]hept-3-en-1-yl)methanol]	0.00292	0.0294	354	0.0086
COC[C@@]12SC(N)=N[C@](C)(c3cc(Nc4ncnc5cc(C#N)cnc45)ccc3F)[C@@H]1C2(F)F [Example 709, 4-((3-((1S,5S,6R)-3-amino-7,7-difluoro-1-(methoxymethyl)-5-methyl-2-thia-4-azabicyclo[4.1.0]hept-3-en-5-yl)-4-fluorophenyl)amino)pyrido[3,2-d]pyrimidine-7-carbonitrile]	0.0092	0.0257	148	0.104
COC[C@@]12SC(N)=N[C@](C)(c3cc(NC(=O)c4ccc(Cl)cn4)ccc3F)[C@@H]1C2(F)F [Example 710, N-(3-((1S,5S,6R)-3-amino-7,7-difluoro-1-(methoxymethyl)-5-methyl-2-thia-4-azabicyclo[4.1.0]hept-3-en-5-yl)-4-fluorophenyl)-5-chloro-2-pyridinecarboxamide]	0.00599	< 0.00203	379	0.055
CC(C)(O)[C@@]12SC(N)=N[C@](C)(c3cc(NC(=O)c4ccc(Cl)cn4)ccc3F)[C@@H]1C2(F)F [Example 711, N-(3-((1S,5S,6R)-3-amino-7,7-difluoro-1-(1-hydroxy-1-methylethyl)-5-methyl-2-thia-4-azabicyclo[4.1.0]hept-3-en-5-yl)-4-fluorophenyl)-5-chloro-2-pyridinecarboxamide]	0.00311	< 0.00203	753	0.014
C#CCOc1cnc2c(Nc3ccc(F)c([C@@]4(C)N=C(N)S[C@]5([C@@H](C)O)[C@H]4C5(F)F)c3)nccc2n1 [Example 713, (1R)-1-((1S,5S,6R)-3-amino-7,7-difluoro-5-(2-fluoro-5-((2-(2-propyn-1-yloxy)pyrido[3,4-b]pyrazin-5-yl)amino)phenyl)-5-methyl-2-thia-4-azabicyclo[4.1.0]hept-3-en-1-yl)ethanol]	0.000864	0.00394	547	0.00543

Next, values leading:

IC50 [1] [µM]	IC50 [2] [µM]	IC50 [3] [µM]	IC50 [4] [µM]	SMILES
0.00102	0.00913	613	0.0109	C#CCOc1cnc2c(Nc3ccc(F)c([C@@]4(C)N=C(N)S[C@]5([C@H](C)O)[C@H]4C5(F)F)c3)nccc2n1 [Example 714, (1S)-1-((1S,5S,6R)-3-amino-7,7-difluoro-5-(2-fluoro-5-((2-(2-propyn-1-yloxy)pyrido[3,4-b]pyrazin-5-yl)amino)phenyl)-5-methyl-2-thia-4-azabicyclo[4.1.0]hept-3-en-1-yl)ethanol]
0.00409	0.00881	918	0.00635	CCOC[C@]12C[C@H]1[C@@](CF)(c1cc(NC(=O)c3ncc(C#N)cc3C)ccc1F)N=C(N)S2 [Example 715, N-(3-((1S,5S,6S)-3-amino-1-(ethoxymethyl)-5-(fluoromethyl)-2-thia-4-azabicyclo[4.1.0]hept-3-en-5-yl)-4-fluorophenyl)-5-cyano-3-methyl-2-pyridinecarboxamide]
0.00216	0.00196	2290	0.00431	COC[C@]12C[C@H]1[C@@](CF)(c1cc(NC(=O)c3ncc(C#N)cc3C)ccc1F)N=C(N)S2 [Example 716, N-(3-((1S,5S,6S)-3-amino-5-(fluoromethyl)-1-(methoxymethyl)-2-thia-4-azabicyclo[4.1.0]hept-3-en-5-yl)-4-fluorophenyl)-5-cyano-3-methyl-2-pyridinecarboxamide]
0.0072	0.00332	> 400	0.0239	COC[C@]12C[C@H]1[C@@](CF)(c1cc(Nc3nccc4cc(C#N)cnc34)ccc1F)N=C(N)S2 [Example 717, 8-((3-((1S,5S,6S)-3-amino-5-(fluoromethyl)-1-(methoxymethyl)-2-thia-4-azabicyclo[4.1.0]hept-3-en-5-yl)-4-fluorophenyl)amino)-1,7-naphthyridine-3-carbonitrile]
0.00367	0.00131	921	0.04	N#CC[C@]12C[C@H]1[C@@](CF)(c1cc(NC(=O)c3ccc(Cl)cn3)ccc1F)N=C(N)S2 [Example 718, N-(3-((1R,5S,6S)-3-amino-1-(cyanomethyl)-5-(fluoromethyl)-2-thia-4-azabicyclo[4.1.0]hept-3-en-5-yl)-4-fluorophenyl)-5-chloro-2-pyridinecarboxamide]
0.00442	0.00397	1490	0.0138	N#CC[C@]12C[C@H]1[C@@](CF)(c1cc(Nc3nccc4cc(C#N)cnc34)ccc1F)N=C(N)S2 [Example 719, 8-((3-((1R,5S,6S)-3-amino-1-(cyanomethyl)-5-(fluoromethyl)-2-thia-4-azabicyclo[4.1.0]hept-3-en-5-yl)-4-fluorophenyl)amino)-1,7-naphthyridine-3-carbonitrile]
0.000935	0.0273	648	0.00151	C#CCOc1cnc2c(Nc3ccc(F)c([C@@]4(CF)N=C(N)S[C@@]5(CC#N)C[C@H]54)c3)nccc2n1 [Example 720, ((1R,5S,6S)-3-amino-5-(fluoromethyl)-5-(2-fluoro-5-((2-(2-propyn-1-yloxy)pyrido[3,4-b]pyrazin-5-yl)amino)phenyl)-2-thia-4-azabicyclo[4.1.0]hept-3-en-1-yl)acetonitrile]
0.00162	0.0677	2130	0.00474	N#CC[C@]12C[C@H]1[C@@](CF)(c1cc(Nc3nccc4nc(OCc5ncco5)cnc34)ccc1F)N=C(N)S2 [Example 721, ((1R,5S,6S)-3-amino-5-(fluoromethyl)-5-(2-fluoro-5-((2-(1,3-oxazol-2-ylmethoxy)pyrido[3,4-b]pyrazin-5-yl)amino)phenyl)-2-thia-4-azabicyclo[4.1.0]hept-3-en-1-yl)acetonitrile]
0.0118	< 0.00203	684	0.0209	NC1=N[C@](CF)(c2cc(NC(=O)c3ccc(Cl)cn3)ccc2F)[C@@H]2C[C@]2(Cn2ccnn2)S1 [Example 722, N-(3-((1S,5S,6S)-3-amino-5-(fluoromethyl)-1-(1H-1,2,3-triazol-1-ylmethyl)-2-thia-4-azabicyclo[4.1.0]hept-3-en-5-yl)-4-fluorophenyl)-5-chloro-2-pyridinecarboxamide]
